Where a SMILES comes first, the peptide text is derived from it.
How the values were obtained:
[1] = Solubility in water or diluted hydrochloric acid
[2] = times of that of sugar; cited from earlier work

Row | solubility ([1]; in water at 25° C.) | Structure (SMILES) | solubility ([1]; in diluted hydrochloric acid (10^-2 M) at 25° C.) | sweetness relative to sugar [2]
1 | 0.028 g/100 g water | COC(=O)[C@H](Cc1ccccc1)NC(=O)[C@H](CC(=O)O)NC(=O)OCc1ccccc1 | 0.017 g/100 g diluted hydrochloric acid (10^-2 M) | –
2 | – | COC(=O)[C@H](Cc1ccccc1)NC(=O)[C@@H](N)CC(=O)O [α-L-Aspartyl-L-phenylalanine methyl ester] (H-Asp-Phe-OMe) | – | about 200 times

From patent US4436925A, “Addition compound of dipeptide derivative and amino acid derivative” (Toyo Soda Manufacturing Co., Ltd., priority 1977, dated 1984)
